Experimental data reported in patent US4088772A, “Methanodibenzocycloheptapyrroles” (E. I. Du Pont de Nemours and Company, priority 1975, dated 1978).
Like-named read-outs stand apart in the source and are kept apart here.

Experiments:
[1] = system: phenylquinone-induced writhing; test: Phenylquinone writhing test (analgesia); format: in vivo, mouse (Carworth CF1 S female); conditions: Mus musculus
Description: This mouse test is predictive of analgesic response in humans. [E. Siegmund, R. Cadmus and G. Lee, Proc. Soc.
ED50 values were obtained graphically from the data.

female white mice = test: animal or person; conditions: Mus musculus, po, oral, mice
Experimental: (§1) Groups of five Carworth CF1 S female mice, 16-20 g each, were fasted 16-22 hours before use. The mice were put in opaque plastic "shoe-box" cages 15-30 min. before injection, and then treated orally with 4, 12, 36, 108 and 324 mg/kg of the compound to be tested as a 13 mg/ml solution in 1% aqueous distilled water solution of methylcellulose (Methocel®). Each dose was given in a standard volume of 0.45 ml. Observations were made at 0.5, 2 and 24 hours after dosing. ED50 values were calculated for each parameter including death (LD50). The ED50 and LD50 values are the doses at which 50% of the naimals would be expected to respond.
(§2) The mouse is placed on a stainless steel wire mesh screen (8 × 12 inches, 3 mesh per inch, 1/4 inch mesh openings) "shoe-box" lid (1 inch high) and is observed for normal activities, such as nose movements, head movements with apparent visual examination of the area, and/or walking around on the screen. Absence of or marked depression of these activities for 5 seconds constitutes loss of exploratory activity.
(§3) The mouse is picked up by the tail and placed on the screen with its head facing the observer. Bilateral eyelid closure of 50% or more two seconds after placement is considered ptosis.
(§4) The mouse is placed with its front paws on the edge of a stainless steel "shoe-box" cover, 1 inch high, covered with adhesive tape. Failure to remove both paws from the cover's edge within 5 seconds constitutes catatonia.
(§5) The observer gently strokes the abdominal musculature of the mouse with thumb and forefinger. Flaccidity (or rarely, tenseness) is recorded.
(§6) The mouse is gently swung by the tail toward a horizontal 12 gauge wire tautly stretched 25 cm above the bench. After the mouse grasps the wire with its forepaws, its posterior end is held directly below the wire. A normal mouse grasps the wire with its forepaws and immediately lifts its hind limbs to the wire. Failure to grasp the wire with the forepaws in both trials constitutes loss of the grip reflex; failure to lift the hind limbs to grasp the wire with at least one hind paw within 5 seconds constitutes loss of the lift reflex.
(§7) The mouse is placed on the bar 10-20 cm horizontally and 9 cm vertically from a Galton whistle adjusted for 13 kc (5 mm on the whistle scale) and is subjected to several short bursts of sound.
(§8) An effective tranquilizer should induce little or no tremor response. […] Tremors include fine or coarse and intermittent or continuous tremors.

in vivo = conditions: mouse, in vivo, po
Experimental: as §1, §2, §3, §4, §5, §6, §7, §8

[2] = read-out: Catatonia ED50, Table 1
[3] = read-out: Exploratory Loss Visual ED50, Table 1
[4] = read-out: Muscle Tone ED50, Table 1
[5] = read-out: Reflexes Grip ED50, Table 1
[6] = read-out: Reflexes Lift ED50, Table 1
[7] = read-out: Reflexes Pinna ED50, Table 1

SMILES | ED50 ([1]; Table 1, oral, mice) [mg/kg] | ED50 (female white mice; [2]) [mg/kg] | ED50 (female white mice; [3]) [mg/kg] | ED50 (female white mice; [4]) [mg/kg] | ED50 (female white mice; read-out: Ptosis ED50, Table 1) [mg/kg] | ED50 (female white mice; [5]) [mg/kg] | ED50 (female white mice; [6]) [mg/kg] | ED50 (female white mice; [7]) [mg/kg] | LD50 at 24 h (in vivo) [mg/kg] | ED50 (in vivo; Tremors ED50, Table 1, mice) [mg/kg] | ED50 ([1]; po, Table 1, mice) [mg/kg] | ED50 (in vivo) [mg/kg]
c1ccc2c(c1)[C@@H]1C[C@@]3(CN(C4CCCC4)C[C@H]23)c2ccccc21 (relative stereo) [Example 48, 2-Cyclopentyl-2,3,8,12b-tetrahydro-1H-3a,8-methanodibenzo[3,4:6,7]cyclohepta[1,2-c]pyrrole] | 38 | 36 | 100 | 100 | 60 | 200 | 60 | 60 | > 324 | > 324 | – | –
CC(C)N1C[C@@H]2c3ccccc3[C@@H]3C[C@@]2(C1)c1ccccc13 (relative stereo) [Example 49, 2-Isopropyl-2,3,8,12b-tetrahydro-1H-3a, 8-methanodibenzo[3,4:6,7]cyclohepta[1,2-c]pyrrole] | 10.8 | 60 | 60 | 7 | 12 | 200 | 36 | 20 | 200 | > 324 | – | –
c1ccc2c(c1)[C@@H]1C[C@@]3(CN(CC4C5CC6CC(C5)CC4C6)C[C@H]23)c2ccccc21 (relative stereo) [Example 53, 2-(2-Adamantylmethyl)-2,3,8,12b-tetrahydro-1H-3a,8-methanodibenzo[3,4:6,7]cyclohepta[1,2-c]pyrrole] | – | 36 | 60 | 100 | 300 | > 324 | 300 | 100 | > 324 | – | 94 | > 524
c1csc(CN2C[C@@H]3c4ccccc4[C@@H]4C[C@@]3(C2)c2ccccc24)c1 (relative stereo) [Example 54, 2-(2-Thienylmethyl)-2,3,8,12b-tetrahydro-1H-3a,8-methanodibenzo[3,4:6,7]cyclohepta[1,2-c]pyrrole] | – | 200 | 200 | 200 | 60 | > 324 | > 324 | 200 | > 324 | – | 27 | > 324
c1ccc([C@@H]2C[C@H]2CN2CC3c4ccccc4C4CC3(C2)c2ccccc24)cc1 (relative stereo) [Example 55, 2-(trans-2-Phenylcyclopropylmethyl)-2,3,8,12 b-tetrahydro-1H-3a,8-methanodibenzo[3,4:6,7]cyclohepta[1,2-c]pyrrole] | – | 200 | 100 | 100 | 36 | > 324 | 200 | 200 | > 324 | – | 48 | > 324
CC(C)(C)N1C[C@@H]2c3ccccc3[C@@H]3C[C@@]2(C1)c1ccccc13 (relative stereo) [Example 56, 2-Tertiarybutyl-2,3,8,12b-tetrahydro-1H-3a,8-methanodibenzo[3,4:6,7]cyclohepta[1,2-c]pyrrole] | 45 | 200 | 200 | 100 | 100 | 100 | 60 | 200 | 300 | 200 | – | –
CCCN1C[C@@H]2c3ccccc3[C@@H]3C[C@@]2(C1)c1ccccc13 (relative stereo) [Example 58, 2-n-Propyl-2,3,8,12b-tetrahydro-1H-3a,8-methanodibenzo[3,4:6,7]cyclohepta[1,2-c]pyrrole] | 2.9 | 7 | 7 | 7 | 7 | 60 | 7 | 4 | 200 | – | – | –
